{"source": "patent US20140328795A1", "about": "“VIRUCIDAL SMALL MOLECULE AND USES THEREOF” (The Texas A&M University System, priority 2012, published 2014)", "key": {"[1]": {"test_system": "commensal Lactobacillus species", "test": "Lactobacillus toxicity testing, all strains together", "type": "cell-based", "description": "Reference strains of L. crispatus and L. jensenii were obtained from the ATCC (Manassas, Va.) and cultured on Columbia blood agar plates at 35° C. in air enriched with 6% CO2. Bacterial suspensions were prepared in saline or ACES buffer to a density of 2 McFarland units (˜2×10^8 bacteria/mL), and exposed to PD (300 μM) or DMSO (10%) for 30 minutes at 37° C. After incubation, the cells were serially diluted in ACES buffer, pH 7.0 (Sigma-Aldrich, St. Louis, Mo.) and plated on blood agar plates to quantify colony forming unit per mL (CFU/mL)\nDifferent bacterial strains were incubated with 300 μM PD or solvent DMSO-containing control media at 37° C. for 30 min and plated on blood agar plates to estimate their corresponding colony forming units per ml (CFU/ml). Less than 1 log difference between control and test CFU is considered non-toxic17."}, "HCVcc [2]": {"test_system": "HCVcc", "set-up": "species or system HCV"}, "HCVcc [3]": {"test_system": "HCVcc", "type": "cell-based, HCV"}, "Sindbis virus (SINV)": {"test_system": "Sindbis virus (SINV)", "type": "cell-based"}, "Dengue virus (DenV)": {"test_system": "Dengue virus (DenV)", "test": "Dengue virus plaque assay on Vero cells", "type": "cell-based, Serotype 2 New Guinea C strain Dengue virus", "details": "300 μM PD"}, "[4]": {"test_system": "HepG2, HCT-8, Huh-7, Huh-7.5, TZM, PC3 and 293T cells", "type": "cell-based, human"}, "HIV-1 (R5 JR-CSF)": {"test_system": "HIV-1 (R5 JR-CSF)", "test": "Antiviral effect of PD before, during and after HIV-1 exposure (TZM-bl)", "type": "cell-based"}, "DC-associated HIV-1": {"test_system": "DC-associated HIV-1", "type": "cell-based", "details": "10 μM PD added to DC 2 h after virus, pseudotyped NL4.3ΔEnv-eGFP/gp160 Env virus, Jurkat T cells, 3 days"}, "VSV-Gpp": {"test_system": "VSV-Gpp", "type": "physicochemical"}, "HSV-1 virions": {"test_system": "HSV-1 virions", "details": "0.2 μM PD, 30 min, 37° C.; 20-70% sucrose gradient", "description": "FIGS. 16A-16B depict effectiveness of PD against HSV. PD blocks HSV infection. Vero cells were seeded in a 24-well plate and infected with HSV-1 (Syn 17) or HSV-2 (333) (FIG. 16A). PD (200 nM) or control DMSO (0.01%) was added immediately to the target cells after viral inoculation. Two days later, the cells were harvested, stained with antibody against HSV glycoprotein gD and analyzed by flow cytometry. Error bars represent standard deviation of triplicate samples. Results are representative of two independent experiments. PD Destabilizes HSV particles (FIG. 16B). […] The amount of HSV glycoprotein gpB in each fraction was analyzed by ELISA. The sucrose gradient density of each fraction was determined by measuring the refractive index. […]\nHSV was concentrated by loading 30 mL HSV-1-infected Vero cell supernatant on a 20% sucrose cushion and centrifuged in a SW28 rotor at 20,000 rpm for 1 h at 4° C. […] After ultracentrifugation at 30,000 rpm for 24 h in a SW-41 T rotor at 4° C., fractions of 1 mL were collected and analyzed for HSV gpB content by enzyme-linked immunosorbent assay (ELISA) using homemade rabbit polyclonal antibody. The density of each fraction from the sucrose gradient was determined by measuring the refractive index.\nApplicants also investigated whether PD can disrupt the structure of HSV virions. […] Each gradient fraction was analyzed for HSV glycoprotein gpB by ELISA. […]"}, "[5]": {"test_system": "primary CD4+ T-lymphocytes, macrophages and dendritic cells", "test": "Primary cells toxicity testing (LDH release)", "details": "up to 14 days"}}, "note": "Entries after “also recorded” stand apart in the source; their conditions may differ. Like-named read-outs stand apart in the source and are kept apart here.", "data": [{"compound": "N=C1Sc2ccccc2C2=NCCCN12", "note": "[PD, PD 404,182]", "values": [{"measurement": "effect on Lactobacillus strains", "setting": "[1]; 300 μM PD, 37° C., 30 min", "value": "no adverse effect"}, {"measurement": "CC50", "setting": "[1]; vaginal commensal bacteria Lactobacilli", "value": "> 300", "unit": "µM"}, {"measurement": "HCVcc virion lysis", "setting": "HCVcc [2]", "value": "Little to no virion lysis"}, {"measurement": "attachment of PD-treated HCVcc to cells", "setting": "HCVcc [3]", "value": "binds to cells comparably to control DMSO-treated virus; also recorded: slight decrease in attachment"}, {"measurement": "effect on infectivity of SINV", "setting": "Sindbis virus (SINV)", "value": "no significant inhibitory effect"}, {"measurement": "effect on infectivity of DenV", "setting": "Dengue virus (DenV)", "value": "no significant inhibitory effect"}, {"measurement": "CC50", "setting": "[4]; cervical cancer cells", "value": "> 300", "unit": "µM"}, {"measurement": "CC50", "setting": "[4]; seven different human cell lines, including TZM-bl (HeLa)", "value": "> 300", "unit": "µM"}, {"measurement": "effect on HIV-1 infection", "setting": "HIV-1 (R5 JR-CSF); 10 μM PD added 1, 2, 4 and 8 h after virus inoculation", "value": "loses its antiviral effect"}, {"measurement": "effect on HIV-1 infection", "setting": "HIV-1 (R5 JR-CSF); 10 μM PD added to cells before the virus", "value": "retains its full potency up to 8 h before the addition of the virus"}, {"measurement": "effect on HIV-1 infection", "setting": "HIV-1 (R5 JR-CSF); 10 μM PD added together with the virus (time zero)", "value": "significantly inhibits HIV-1 infection"}, {"measurement": "effect on HIV-1 infection", "setting": "HIV-1 (R5 JR-CSF); extended (>16 h) preincubation of PD with cells prior to virus inoculation", "value": "significantly reduces the compound's antiviral efficacy"}, {"measurement": "DC to T cell transmission of HIV-1", "setting": "DC-associated HIV-1", "value": "prevents subsequent T cell infection with the pseudotyped virus"}, {"measurement": "antiviral activity lost", "setting": "VSV-Gpp", "value": "no activity loss"}, {"measurement": "stability", "setting": "VSV-Gpp; pH 4", "value": "highly stable"}, {"measurement": "sedimentation of HSV gpB in sucrose gradient", "setting": "HSV-1 virions", "value": "all gpB distributed to the top of the gradient"}, {"measurement": "CC50", "setting": "[5]", "value": "> 300", "unit": "µM"}]}]}
